# Earlier results in US10399920B2, “Crystalline form of cannabidiol” (S&B Pharma, Inc., priority 2016, dated 2019).
# Tested on: epilepsy
# Settings: animal studies; dosed at 50 and 100 mg/kg intra-peritoneally; Cannabidiol prepared by non-synthetic methods
structure (smiles),measurement,value
C=C(C)[C@@H]1CCC(C)=C[C@H]1c1c(O)cc(CCCCC)cc1O [Cannabidiol],reducing mortality,effective in reducing mortality
